Consider 14 compounds from patent US20220177508A1, “C10-Cyclic Substituted 13-Membered Macrolides and Uses Thereof” (Zikani Therapeutics, Inc., priority 2018, published 2022).

Each structure is given as a SMILES string. Converted amounts (≈) assume the structure as drawn.

What all share (assay type): cell-based
One assay deals with P. aeruginosa MP-3. Kind of assay: Broth dilution MIC determination (CLSI), P. aeruginosa MP-3. The note with it: Pseudomonas aeruginosa, MP3; strain MP-3, broth dilution. (In general: Broth dilution looks for growth in wells or tubes with falling amounts of substance.)
Another assay deals with S. aureus MP-12. The experiment in a line: Broth dilution MIC determination (CLSI), S. aureus MP-12. The note with it: Staphylococcus aureus, MP12; strain MP-12, broth dilution.
In a further assay the test system is K. pneumoniae MP-546. Kind of assay: Broth dilution MIC determination (CLSI), K. pneumoniae MP-546. The settings on record: Klebsiella pneumoniae, MP546; strain MP-546, broth dilution.
In another assay the test system is A. baumannii MP-15. The experiment in a line: Broth dilution MIC determination (CLSI), A. baumannii MP-15. The settings on record: Acinetobacter baumannii, MP15; strain MP-15, broth dilution; read-out: MIC A. baumanii MP-15.
The next assay concerns E. coli MP-4. The experiment in a line: Broth dilution MIC determination (CLSI), E. coli MP-4. The note with it: Escherichia coli, MP4; strain MP-4, broth dilution; read-out: MIC E. coli MP-4.

A word on the MIC: it is the lowest concentration found to suppress growth.

Consider `CO[C@]1(C)C[C@@H](C)CN(C(=O)OCc2ccccc2)[C@H](C2CCN(C(C)C)CC2)COC(=O)C(C)(C)C(=O)[C@H](C)[C@H]1O[C@@H]1O[C@H](C)C[C@H](N(C)C)[C@H]1O` [Compound 118, Benzyl (3R,6R,8R,9R,10R)-9-(((2S,3R,4S,6R)-4-(dimethylamino)-3-hydroxy-6-methyltetrahydro-2H-pyran-2-yl)oxy)-3-(1-isopropylpiperidin-4-yl)-8-methoxy-6,8,10,12,12-pentamethyl-11,13-dioxo-1-oxa-4-azacyclotridecane-4-carboxylate], for which the minimal inhibitory concentration (MIC) in the assay on P. aeruginosa MP-3, in the assay with S. aureus MP-12, in the assay on K. pneumoniae MP-546, in the assay on A. baumannii MP-15 and with E. coli MP-4 was above 32 µg/mL each time.

As to `CO[C@]1(C)C[C@@H](C)CN(C)[C@H](C2CCN(CC(C)C)CC2)COC(=O)C(C)(C)C(=O)[C@H](C)[C@H]1O[C@@H]1O[C@H](C)C[C@H](N(C)C)[C@H]1O` [Compound 121, (3R,6R,8R,9R,10R)-9-(((2S,3R,4S,6R)-4-(dimethylamino)-3-hydroxy-6-methyltetrahydro-2H-pyran-2-yl)oxy)-3-(1-isobutylpiperidin-4-yl)-8-methoxy-4,6,8,10,12,12-hexamethyl-1-oxa-4-azacyclotridecane-11,13-dione], the MIC with P. aeruginosa MP-3 is above 32 µg/mL; against S. aureus MP-12 it was 4 to 32 µg/mL (≈ 6.25 to 50 µM); against K. pneumoniae MP-546, below 4 µg/mL; with A. baumannii MP-15 it was above 32 µg/mL; with E. coli MP-4 it was below 4 µg/mL.

As to `CO[C@]1(C)C[C@@H](C)CN(C)[C@H]([C@@H]2CCN(CC(C)C)C2)COC(=O)C(C)(C)C(=O)[C@H](C)[C@H]1O[C@@H]1O[C@H](C)C[C@H](N(C)C)[C@H]1O` [Compound 123, (3R,6R,8R,9R,10R)-9-(((2S,3R,4S,6R)-4-(dimethylamino)-3-hydroxy-6-methyltetrahydro-2H-pyran-2-yl)oxy)-3-((R)-1-isobutylpyrrolidin-3-yl)-8-methoxy-4,6,8,10,12,12-hexamethyl-1-oxa-4-azacyclotridecane-11,13-dione], the minimum inhibitory concentration (MIC) against P. aeruginosa MP-3 is above 32 µg/mL; against S. aureus MP-12, 4 to 32 µg/mL (≈ 6.39 to 51.1 µM); against K. pneumoniae MP-546 it was 4 to 32 µg/mL (≈ 6.39 to 51.1 µM); in the assay on A. baumannii MP-15, above 32 µg/mL; with E. coli MP-4, below 4 µg/mL.

Regarding `CO[C@]1(C)C[C@@H](C)CN(C)[C@H](C2CC3CCC(C2)N3C)COC(=O)C(C)(C)C(=O)[C@H](C)[C@H]1O[C@@H]1O[C@H](C)C[C@H](N(C)C)[C@H]1O` (stereo partly drawn) [Compound 129, (3R,6R,8R,9R,10R)-9-(((2S,3R,4S,6R)-4-(dimethylamino)-3-hydroxy-6-methyltetrahydro-2H-pyran-2-yl)oxy)-8-methoxy-4,6,8,10,12,12-hexamethyl-3-(8-methyl-8-azabicyclo[3.2.1]octan-3-yl)-1-oxa-4-azacyclotridecane-11,13-dione], the MIC in the assay with P. aeruginosa MP-3 is above 32 µg/mL; against S. aureus MP-12, above 32 µg/mL; in the assay on K. pneumoniae MP-546, 4 to 32 µg/mL (≈ 6.41 to 51.3 µM); with A. baumannii MP-15 it was above 32 µg/mL; in the assay on E. coli MP-4, below 4 µg/mL.

Consider `CO[C@]1(C)C[C@@H](C)CN(C)[C@H](C2CCN(C)CC2)[C@H](C)OC(=O)C(C)(C)C(=O)[C@H](C)[C@H]1O[C@@H]1O[C@H](C)C[C@H](N(C)C)[C@H]1O` [Compound 130, (2S,3R,6R,8R,9R,10R)-9-(((2S,3R,4S,6R)-4-(dimethylamino)-3-hydroxy-6-methyltetrahydro-2H-pyran-2-yl)oxy)-8-methoxy-2,4,6,8,10,12,12-heptamethyl-3-(1-methylpiperidin-4-yl)-1-oxa-4-azacyclotridecane-11,13-dione], for which the MIC is above 32 µg/mL in the assay on P. aeruginosa MP-3; above 32 µg/mL against S. aureus MP-12; above 32 µg/mL in the assay on K. pneumoniae MP-546; above 32 µg/mL with A. baumannii MP-15; 4 to 32 µg/mL (≈ 6.54 to 52.3 µM) in the assay with E. coli MP-4.

For `CO[C@]1(C)C[C@@H](C)CN(C)[C@H](c2ccc(B(O)O)cc2)COC(=O)C(C)(C)C(=O)[C@H](C)[C@H]1O[C@@H]1O[C@H](C)C[C@H](N(C)C)[C@H]1O` [Compound 133, (4-((3R,6R,8R,9R,10R)-9-(((2S,3R,4S,6R)-4-(Dimethylamino)-3-hydroxy-6-methyltetrahydro-2H-pyran-2-yl)oxy)-8-methoxy-4,6,8,10,12,12-hexamethyl-11,13-dioxo-1-oxa-4-azacyclotridecan-3-yl)phenyl)boronic acid], the MIC is above 32 µg/mL with P. aeruginosa MP-3; above 32 µg/mL against S. aureus MP-12; above 32 µg/mL against K. pneumoniae MP-546; above 32 µg/mL in the assay on A. baumannii MP-15; 4 to 32 µg/mL (≈ 6.45 to 51.6 µM) in the assay on E. coli MP-4.

Turning to `CO[C@]1(C)C[C@@H](C)CN(C)[C@H](C2CNC2)COC(=O)C(C)(C)C(=O)[C@H](C)[C@H]1O[C@@H]1O[C@H](C)C[C@H](N(C)C)[C@H]1O` [Compound 134, (3R,6R,8R,9R,10R)-3-(azetidin-3-yl)-9-(((2S,3R,4S,6R)-4-(dimethylamino)-3-hydroxy-6-methyltetrahydro-2H-pyran-2-yl)oxy)-8-methoxy-4,6,8,10,12,12-hexamethyl-1-oxa-4-azacyclotridecane-11,13-dione], the MIC against P. aeruginosa MP-3 was above 32 µg/mL; with S. aureus MP-12, above 32 µg/mL; with K. pneumoniae MP-546, 4 to 32 µg/mL (≈ 7.2 to 57.6 µM); in the assay on A. baumannii MP-15, above 32 µg/mL; in the assay on E. coli MP-4, below 4 µg/mL.

Consider `CO[C@]1(C)C[C@@H](C)CN(C)[C@@H]([C@H]2CC[C@H](N(C)C)CC2)COC(=O)C(C)(C)C(=O)[C@H](C)[C@H]1O[C@@H]1O[C@H](C)C[C@H](N(C)C)[C@H]1O` [Compound 137, (3S,6R,8R,9R,10R)-9-(((2S,3R,4S,6R)-4-(dimethylamino)-3-hydroxy-6-methyltetrahydro-2H-pyran-2-yl)oxy)-3-((1r,4S)-4-(dimethylamino)cyclohexyl)-8-methoxy-4,6,8,10,12,12-hexamethyl-1-oxa-4-azacyclotridecane-11,13-dione], for which the MIC is above 32 µg/mL in the assay with P. aeruginosa MP-3; above 32 µg/mL in the assay on S. aureus MP-12; 4 to 32 µg/mL (≈ 6.39 to 51.1 µM) against K. pneumoniae MP-546; above 32 µg/mL in the assay on A. baumannii MP-15; 4 to 32 µg/mL (≈ 6.39 to 51.1 µM) in the assay on E. coli MP-4.

Consider `CO[C@]1(C)C[C@@H](C)CN(C)[C@@H]([C@H]2CCN(C(C)=O)C2)COC(=O)C(C)(C)C(=O)[C@H](C)[C@H]1O[C@@H]1O[C@H](C)C[C@H](N(C)C)[C@H]1O` [Compound 140, (3S,6R,8R,9R,10R)-3-((S)-1-acetylpyrrolidin-3-yl)-9-(((2S,3R,4S,6R)-4-(dimethylamino)-3-hydroxy-6-methyltetrahydro-2H-pyran-2-yl)oxy)-8-methoxy-4,6,8,10,12,12-hexamethyl-1-oxa-4-azacyclotridecane-11,13-dione], for which the minimal inhibitory concentration (MIC) was above 32 µg/mL with P. aeruginosa MP-3; above 32 µg/mL in the assay on S. aureus MP-12; above 32 µg/mL against K. pneumoniae MP-546; above 32 µg/mL in the assay with A. baumannii MP-15; 4 to 32 µg/mL (≈ 6.54 to 52.3 µM) in the assay on E. coli MP-4.

For the compound `CO[C@]1(C)C[C@@H](C)CN(C)[C@H](C2CCN(S(C)(=O)=O)CC2)COC(=O)C(C)(C)C(=O)[C@H](C)[C@H]1O[C@@H]1O[C@H](C)C[C@H](N(C)C)[C@H]1O` [Compound 142, (3R,6R,8R,9R,10R)-9-(((2S,3R,4S,6R)-4-(dimethylamino)-3-hydroxy-6-methyltetrahydro-2H-pyran-2-yl)oxy)-8-methoxy-4,6,8,10,12,12-hexamethyl-3-(1-(methylsulfonyl)piperidin-4-yl)-1-oxa-4-azacyclotridecane-11,13-dione], the MIC against P. aeruginosa MP-3 was above 32 µg/mL; against S. aureus MP-12, 4 to 32 µg/mL (≈ 6.04 to 48.3 µM); in the assay with K. pneumoniae MP-546, 4 to 32 µg/mL (≈ 6.04 to 48.3 µM); in the assay with A. baumannii MP-15, above 32 µg/mL; in the assay with E. coli MP-4 it was 4 to 32 µg/mL (≈ 6.04 to 48.3 µM).

For `CO[C@]1(C)C[C@@H](C)CN(C)[C@H](C2CCN(C(C)C)CC2)[C@H](C)OC(=O)C(C)(C)C(=O)[C@H](C)[C@H]1O[C@@H]1O[C@H](C)C[C@H](N(C)C)[C@H]1O` [Compound 147, (2S,3R,6R,8R,9R,10R)-9-(((2S,3R,4S,6R)-4-(dimethylamino)-3-hydroxy-6-methyltetrahydro-2H-pyran-2-yl)oxy)-3-(1-isopropylpiperidin-4-yl)-8-methoxy-2,4,6,8,10,12,12-heptamethyl-1-oxa-4-azacyclotridecane-11,13-dione], the minimal inhibitory concentration (MIC) was above 32 µg/mL against P. aeruginosa MP-3; above 32 µg/mL against S. aureus MP-12; 4 to 32 µg/mL (≈ 6.25 to 50 µM) against K. pneumoniae MP-546; above 32 µg/mL in the assay on A. baumannii MP-15; 4 to 32 µg/mL (≈ 6.25 to 50 µM) in the assay with E. coli MP-4.

For `CO[C@]1(C)C[C@@H](C)CN(C)[C@H]([C@@H]2CCN(C(=O)CN(C)C)C2)COC(=O)C(C)(C)C(=O)[C@H](C)[C@H]1O[C@@H]1O[C@H](C)C[C@H](N(C)C)[C@H]1O` [Compound 148, (3R,6R,8R,9R,10R)-9-(((2S,3R,4S,6R)-4-(Dimethylamino)-3-hydroxy-6-methyltetrahydro-2H-pyran-2-yl)oxy)-3-((R)-1-(dimethylglycyl)pyrrolidin-3-yl)-8-methoxy-4,6,8,10,12,12-hexamethyl-1-oxa-4-azacyclotridecane-11,13-dione], the minimum inhibitory concentration (MIC) against P. aeruginosa MP-3 is above 32 µg/mL; with S. aureus MP-12 it was above 32 µg/mL; against K. pneumoniae MP-546 it was 4 to 32 µg/mL (≈ 6.11 to 48.9 µM); in the assay on A. baumannii MP-15 it was above 32 µg/mL; with E. coli MP-4, below 4 µg/mL.

Consider `CO[C@]1(C)C[C@@H](C)CN(C)[C@@H](C2CN(C(=O)C(C)(C)N(C)C)C2)COC(=O)C(C)(C)C(=O)[C@H](C)[C@H]1O[C@@H]1O[C@H](C)C[C@H](N(C)C)[C@H]1O` [Compound 149], for which the minimal inhibitory concentration (MIC) in the assay on P. aeruginosa MP-3 is above 32 µg/mL; in the assay on S. aureus MP-12, above 32 µg/mL; in the assay on K. pneumoniae MP-546 it was 4 to 32 µg/mL (≈ 5.98 to 47.8 µM); with A. baumannii MP-15, above 32 µg/mL; in the assay on E. coli MP-4, below 4 µg/mL.

As to `CO[C@]1(C)C[C@@H](C)CN(C)[C@H](C2CN(C(=O)CN3CC(F)(F)C3)C2)COC(=O)C(C)(C)C(=O)[C@H](C)[C@H]1O[C@@H]1O[C@H](C)C[C@H](N(C)C)[C@H]1O` [Compound 154, (3R,6R,8R,9R,10R)-3-(1-(2-(3,3-difluoroazetidin-1-yl)acetyl)azetidin-3-yl)-9-(((2S,3R,4S,6R)-4-(dimethylamino)-3-hydroxy-6-methyltetrahydro-2H-pyran-2-yl)oxy)-8-methoxy-4,6,8,10,12,12-hexamethyl-1-oxa-4-azacyclotridecane-11,13-dione], the minimal inhibitory concentration (MIC) against P. aeruginosa MP-3 is above 32 µg/mL; in the assay with S. aureus MP-12 it was 4 to 32 µg/mL (≈ 5.81 to 46.5 µM); against K. pneumoniae MP-546, 4 to 32 µg/mL (≈ 5.81 to 46.5 µM); with A. baumannii MP-15, above 32 µg/mL; with E. coli MP-4, below 4 µg/mL.
